# Experimental data taken from article PMC6333893, “Exquisite ligand stereoselectivity of a Drosophila juvenile hormone receptor contrasts with its broad agonist repertoire” (The Journal of Biological Chemistry, 2018).
# Like-named read-outs stand apart in the source and are kept apart here.
# Tests used:
# [1] = target: T1, Gce (germ cell-expressed), Myc-tagged, in vitro translated (Drosophila melanogaster, UniProt Q9VXW7); test: competition against R,S-[3H]JH III, glass fiber filter; type: binding
# T1 sequence (Q9VXW7 271-959): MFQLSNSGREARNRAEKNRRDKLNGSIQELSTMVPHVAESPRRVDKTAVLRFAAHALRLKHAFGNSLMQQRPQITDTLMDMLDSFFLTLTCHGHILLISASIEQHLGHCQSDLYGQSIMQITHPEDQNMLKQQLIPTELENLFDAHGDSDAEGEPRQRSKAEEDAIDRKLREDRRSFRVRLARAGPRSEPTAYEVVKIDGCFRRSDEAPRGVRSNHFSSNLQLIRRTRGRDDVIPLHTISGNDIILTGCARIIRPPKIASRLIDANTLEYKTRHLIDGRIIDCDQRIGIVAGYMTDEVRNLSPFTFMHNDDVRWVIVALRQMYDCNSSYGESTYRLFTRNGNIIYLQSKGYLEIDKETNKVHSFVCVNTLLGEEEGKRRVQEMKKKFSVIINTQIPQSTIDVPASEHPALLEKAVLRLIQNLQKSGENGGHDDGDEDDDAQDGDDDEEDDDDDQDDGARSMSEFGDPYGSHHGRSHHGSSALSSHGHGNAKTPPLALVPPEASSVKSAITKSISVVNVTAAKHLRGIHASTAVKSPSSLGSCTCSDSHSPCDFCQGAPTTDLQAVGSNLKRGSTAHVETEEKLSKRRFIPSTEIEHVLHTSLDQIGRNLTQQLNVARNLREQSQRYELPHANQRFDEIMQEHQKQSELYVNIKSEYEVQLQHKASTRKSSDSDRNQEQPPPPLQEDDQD
# [2] = target: T2, endogenous Gce in Drosophila S2 cells (JHRE-luc) (Drosophila melanogaster, UniProt Q9VXW7); test: JHRE-luc reporter activation in S2 cells; type: cell-based; details: 8 h, transfected Tai, agonist
# T2 construct: endogenous Gce of S2 cells, transfected D. melanogaster Tai and JHRE-luc reporter
# [3] = read-out: Affinity of ligand binding to Gce (Ki)^a
# T2 sequence (Q9VLD9 1-2026 partner, one chain of several): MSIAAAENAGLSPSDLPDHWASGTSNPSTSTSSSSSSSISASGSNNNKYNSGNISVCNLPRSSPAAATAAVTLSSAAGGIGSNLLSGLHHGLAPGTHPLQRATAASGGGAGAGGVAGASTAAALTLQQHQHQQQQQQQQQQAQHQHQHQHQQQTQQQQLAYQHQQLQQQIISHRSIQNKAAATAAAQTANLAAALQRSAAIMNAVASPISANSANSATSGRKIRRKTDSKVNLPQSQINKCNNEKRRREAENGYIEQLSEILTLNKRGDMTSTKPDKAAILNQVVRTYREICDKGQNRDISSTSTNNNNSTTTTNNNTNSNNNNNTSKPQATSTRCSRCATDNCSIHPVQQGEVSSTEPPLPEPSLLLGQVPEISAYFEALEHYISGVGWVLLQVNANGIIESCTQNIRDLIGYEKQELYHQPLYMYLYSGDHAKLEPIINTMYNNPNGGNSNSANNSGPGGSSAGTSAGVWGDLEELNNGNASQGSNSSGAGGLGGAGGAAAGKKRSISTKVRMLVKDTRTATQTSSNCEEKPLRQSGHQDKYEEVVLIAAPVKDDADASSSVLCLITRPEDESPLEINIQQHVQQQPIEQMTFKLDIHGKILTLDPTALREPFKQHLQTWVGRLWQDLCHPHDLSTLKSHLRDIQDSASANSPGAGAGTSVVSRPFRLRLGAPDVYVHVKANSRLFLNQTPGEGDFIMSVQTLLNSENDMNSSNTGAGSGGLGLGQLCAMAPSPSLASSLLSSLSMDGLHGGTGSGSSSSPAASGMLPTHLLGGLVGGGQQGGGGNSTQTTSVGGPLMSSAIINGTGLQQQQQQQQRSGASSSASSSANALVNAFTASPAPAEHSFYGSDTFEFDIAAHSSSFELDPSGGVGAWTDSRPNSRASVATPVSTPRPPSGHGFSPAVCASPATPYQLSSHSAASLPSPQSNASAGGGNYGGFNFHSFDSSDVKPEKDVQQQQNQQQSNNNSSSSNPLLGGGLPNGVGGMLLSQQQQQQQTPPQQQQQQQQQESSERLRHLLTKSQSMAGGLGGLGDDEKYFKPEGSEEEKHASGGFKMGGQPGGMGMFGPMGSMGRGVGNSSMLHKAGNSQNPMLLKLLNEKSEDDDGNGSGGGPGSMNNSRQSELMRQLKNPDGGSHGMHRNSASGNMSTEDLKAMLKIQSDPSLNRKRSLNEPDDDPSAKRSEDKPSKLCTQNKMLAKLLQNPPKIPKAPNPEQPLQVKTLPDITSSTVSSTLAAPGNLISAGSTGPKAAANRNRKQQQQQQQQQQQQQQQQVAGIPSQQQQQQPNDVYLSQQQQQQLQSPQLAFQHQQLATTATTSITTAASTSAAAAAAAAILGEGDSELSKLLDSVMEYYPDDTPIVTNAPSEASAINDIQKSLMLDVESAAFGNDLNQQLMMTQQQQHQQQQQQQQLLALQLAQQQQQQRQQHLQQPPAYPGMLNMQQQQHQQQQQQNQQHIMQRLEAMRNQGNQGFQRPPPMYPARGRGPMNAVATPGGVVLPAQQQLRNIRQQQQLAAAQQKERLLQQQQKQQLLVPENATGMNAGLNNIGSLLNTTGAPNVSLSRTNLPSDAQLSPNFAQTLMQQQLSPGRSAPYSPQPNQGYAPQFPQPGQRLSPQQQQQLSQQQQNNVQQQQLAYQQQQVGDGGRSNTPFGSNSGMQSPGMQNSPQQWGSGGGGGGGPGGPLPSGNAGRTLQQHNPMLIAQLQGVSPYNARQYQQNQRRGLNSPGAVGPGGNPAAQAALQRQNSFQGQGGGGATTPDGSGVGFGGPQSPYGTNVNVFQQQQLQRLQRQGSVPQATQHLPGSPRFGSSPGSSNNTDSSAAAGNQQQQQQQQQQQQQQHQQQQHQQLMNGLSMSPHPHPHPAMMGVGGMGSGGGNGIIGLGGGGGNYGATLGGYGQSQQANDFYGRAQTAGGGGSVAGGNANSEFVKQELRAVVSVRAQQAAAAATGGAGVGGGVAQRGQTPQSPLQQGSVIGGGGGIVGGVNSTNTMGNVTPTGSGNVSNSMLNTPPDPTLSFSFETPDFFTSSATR
Compound,Ki ([1]; read-out: Ki),EC50 ([2]; read-out: EC50),"Ki [1, 3]",also measured
"CCOC(=O)NCCOc1ccc(Oc2ccccc2)cc1 [fenoxycarb, ethyl N-[2-(4-phenoxyphenoxy)ethyl]carbamate]",2.8 ± 1.1 nM,2.29 ± 0.65 nM,–,–
"COC(=O)/C=C(\C)CC/C=C(\C)CCC1OC1(C)C (centres unmarked) [R,S-JH III]",11 ± 2.2 nM,–,–,"EC50 ([2]; racemic compound, read-out: EC50): 210 ± 140 nM"
"CC/C(=C/CC/C(C)=C/C(=O)OC)CC[C@H]1O[C@]1(C)CC [R-(E,Z)-JH I]",–,–,479 nM,–
COC(=O)/C=C(\C)CC/C=C(\C)CC[C@H]1OC1(C)C [R-JH III],4.8 ± 1.3 nM,930 ± 380 nM,–,–
COC(=O)/C=C(\C)CC/C=C(\C)CC[C@@H]1OC1(C)C [S-JH III],38.3 ± 5.2 nM,–,–,EC50 ([2]; unreliable (no saturation reached)): 4460 ± 2950 nM
"CC/C(C)=C/CC/C(=C/CC/C(C)=C/C(=O)OC)CC [deoxy-JH I, methyl (2E,6E,10E)-7-ethyl-3,11-dimethyltrideca-2,6,10-trienoate]",143 ± 45 nM,–,–,–
"CC/C(=C/CC/C(C)=C\C(=O)OC)CC[C@H]1O[C@]1(C)CC [R-(Z,Z)-JH I]",–,–,28900 nM,–
COC(=O)/C=C(\C)CCC1OC1(C)CCC1OC1(C)C (centres unmarked) [JHB3],83.3 ± 40.8 nM,110 ± 10 nM,–,–
"CC/C(=C\CC/C(C)=C\C(=O)OC)CC[C@H]1O[C@]1(C)CC [R-(Z,E)-JH I]",–,–,2400 nM,–
"CC/C(=C\CC/C(C)=C/C(=O)OC)CC[C@H]1O[C@@]1(C)CC [S-(E,E)-JH I]",13.8 ± 5.1 nM,370 ± 220 nM,–,–
"CC/C(=C/CC/C(C)=C\C(=O)OC)CC[C@H]1O[C@@]1(C)CC [S-(Z,Z)-JH I]",–,–,22600 nM,–
"CC/C(=C/CC/C(C)=C/C(=O)OC)CC[C@H]1O[C@@]1(C)CC [S-(E,Z)-JH I]",–,–,447 nM,–
"CCOC(=O)NCCOc1ccc(CC2CCCCC2O)cc1 (centres unmarked) [W330, Ethyl N-{2-{4-[(2-hydroxycyclohexyl)methyl]phenoxy}ethyl}carbamate]",17.4 ± 5.7 nM,5.42 ± 0.41 nM,–,–
"CC/C(=C\CC/C(C)=C\C(=O)OC)CC[C@H]1O[C@@]1(C)CC [S-(Z,E)-JH I]",–,–,614 nM,–
COC(=O)/C=C(\C)CC/C=C(\C)CCC=C(C)C [MF],89.8 ± 26.7 nM,4430 ± 950 nM,–,–
